According to US5386017A, “Alkenes for producing chemiluminescent 1, 2-dioxetane compounds” (priority 1990, dated 1995):

Assays:
[1] = format: physicochemical; details: for Ea: activation energy for decomposition in xylene; for log A / k (sec^-1) at 25° C. / t1/2 at 25° C.: decomposition in xylene
Protocol: Rates of dioxetane decomposition were monitored by the decay of chemiluminescence of aerated solutions. A cylindrical Pyrex vial equipped with magnet stir bar was filled with 3-4 mL of the reaction solvent, sealed with a Teflon-lined screw cap and placed in the thermostatted sample block of the chemiluminescence-measuring apparatus (Black Box). Temperature control was provided by an external circulating water bath. Appropriate values for the instrument gain and optical slit size were selected. […]. The vial was sealed with a Teflon-lined screw cap to prevent evaporation when high temperatures were used. Measurement of the signal was begun by opening the shutter. The chemiluminescent decay was generally recorded for at least three half-lives. Calculation of the first-order rate constant, k, from the In(Intensity) vs. time data was performed by a computer program utilizing a standard least-squares treatment. The correlation coefficient, r, was typically at least 0.999 and varied less than 5% between replicate samples. The observed rate was not measurably concentration dependent.
Activation parameters for decomposition of the dioxetanes were calculated from plots of In k vs. l/T (Arrhenius eq.) or In k/t vs. l/T (Eyring eq.) by a standard least-squares linear regression analysis.

[2] = system: Aryl esterase (carboxylic ester hydrolase) from porcine liver; assay: Enzymatic triggering of chemiluminescence with aryl esterase; format: biochemical; details: for effect of competing substrate on light intensity of dioxetane 2e reaction: 10 μL of […] added at maximum emission, pH 7.6 phosphate buffer, 37° C.
Protocol: A secondary stock solution of the acetate-protected dioxetane 2e was made by evaporating an aliquot of the methylene chloride stock equivalent to 10 micromoles of dioxetane and dissolving in 5.0 mL of 2-methoxyethanol to give a final concentration of 0.002M. […] Buffer solutions prepared in distilled water were 0.05M phosphate pH 7.6 and 8.0, 0.02M Tris (tris-hydroxymethylaminomethane maleate) pH 7.6, and pH 9.0 phosphate/borate buffer. Aryl esterase (also called carboxylic ester hydrolase (P-5221)) from porcine liver was purchased from Sigma Chemical Co. as a suspension of 11 mg of protein per mL in 3.2M (NH4)2 SO4 solution pH 8.0. Each mg of protein is equivalent to 260 Units, where 1 Unit is defined as the amount which will hydrolyze 1 micromole of ethyl butyrate in 1 minute at pH 8.0, 25° C. […] Injection of 1 μL of (0.26 units) of aryl esterase to the stirred solution caused a chemiluminescent signal to appear. The intensity reached a maximum at about 3 minutes and decayed over a 30 minute period.
3.) When distilled water was substituted for the Tris buffer, no chemiluminescence signal was observed, but on adding Tris buffer to this solution light emission similar to that above was produced. […] Addition of untreated enzyme preparation to this solution again produced light. […] The emission could be totally extinguished by addition of sufficient SDS. The decrease in light emission is not due to photophysical quenching of the excited state since thermal decomposition in the same solvent system at elevated temperatures results in readily detectable chemiluminescence.
This type of behavior explains the effect of the addition of the known esterase substrates α-naphthyl acetate and β-naphthyl acetate. […] A solution of 25 μL of the dioxetane stock (0.002M) in 3 mL of pH 7.6 phosphate buffer maintained at 37° C. was treated wtih 5μL of the enzyme to initiate the chemiluminescence. At the point of maximum emission 10 μL of 0.011M solution of either α- or β-naphthyl acetate were added.

[3] = 25° C.; cited from earlier work
[4] = 0.26 units aryl esterase, pH 7.6 Tris buffer, 25° C.

## COC1(c2ccc3ccccc3c2)OOC12C1CC3CC(C1)CC2C3 (centres unmarked) [Dioxetane 2a, 4-Methoxy-4-(2-naphthyl)spiro[1,2-dioxetane-3,2'-adamantane]]
[1]
  Ea: 29.7
  log A: 13.2
  k (sec^-1) at 25° C.: 3.17e-09 s⁻¹
  t1/2 at 25° C.: 6.9 yrs

## COC1(c2ccc3cc(O)ccc3c2)OOC12C1CC3CC(C1)CC2C3 (centres unmarked) [Dioxetane 2b, 4-(6-Hydroxy-2-naphthyl)-4-methoxyspiro[1,2-dioxetane-3,2'-adamantane]]
[1]
  Ea: 29.7
  log A: 13.3
  k (sec^-1) at 25° C.: 3.83e-09 s⁻¹
  t1/2 at 25° C.: 5.7 yrs

## COC1(c2ccc3cc(O[Si](C)(C)C(C)(C)C)ccc3c2)OOC12C1CC3CC(C1)CC2C3 (centres unmarked) [Dioxetane 2c]
[1]
  Ea: 27.0
  log A: 11.7
  k (sec^-1) at 25° C.: 8.72e-09 s⁻¹
  t1/2 at 25° C.: 2.5 yrs

## COC1(c2ccc3cc(OC(C)=O)ccc3c2)OOC12C1CC3CC(C1)CC2C3 (centres unmarked) [Dioxetane 2e, 4-(6-Acetoxy-2-naphthyl)-4-methoxyspiro[1,2-dioxetane-3,2' -adamantane]]
[1]; aliquot in 3 mL o-xylene at 95° C.
  duration of thermal chemiluminescence: persisted for several hours
[2]; 0.3 μmol in 3.0 mL pH 7.6 Tris buffer, 25° C., before enzyme
  chemiluminescence signal without enzyme: no chemiluminescence signal was detected
[2]; [4]
  period of decay of chemiluminescence: 30 min
  time to maximum chemiluminescence intensity: about 3 minutes

## Oc1ccc(C23OCCOC2(c2ccccc2)OO3)cc1 (centres unmarked) [deprotonated dioxetane (X=O^-)]
[3]
  decomposition rate relative to the protonated form (X=OH): 5.7×10^6 times faster

## CCCCCCCCCCCCOS(=O)(=O)[O-].[Na+] [sodium lauryl sulfate (SDS), sodium lauryl sulfate, reference compound]
[2]; added at maximum emission, Tris buffer, 1.5 μL enzyme
  effect of enzyme inhibitor on light emission: irreversible decrease in the intensity

## CC(=O)Oc1cccc2ccccc12 [α-naphthyl acetate, reference compound]
[2]
  effect of competing substrate on light intensity of dioxetane 2e reaction: rapid decrease in light intensity was noted followed by restoration of the original intensity within less than one minute

## CC(=O)Oc1ccc2ccccc2c1 [β-naphthyl acetate, reference compound]
[2]
  effect of competing substrate on light intensity of dioxetane 2e reaction: rapid decrease in light intensity was noted followed by restoration of the original intensity within less than one minute
